Key:
[1] = SRB cytotoxicity assay, HEK293; format: cell-based, human; settings: human, HEK293 cells; HEK293, 48 h, SRB
Description: (§1) HEK293 (Human embryonic kidney cell line), HepG2 (Human liver carcinoma cell line), LX-2 (Human hepatic stellate cell line), and 3T3-L1 (Murine preadipocyte cell line) cells were obtained from the American Type Culture Collection (ATCC), Bethesda, MD, USA.

[2] = test system: HEK293 (Human embryonic kidney cell line); experiment: SRB cytotoxicity assay, HEK293; format: cell-based
Description: as §1

[3] = SRB cytotoxicity assay, RAW 264.7; settings: mouse
Method: (§2) The cells were maintained in a 5% CO2 humidified atmosphere (CO2 incubator, Thermo Scientific, Waltham, MA, USA) at 37 °C and sub-cultured every 3 days.
(§3) The cytotoxicity of the oligopeptide and its conjugated forms on HepG2, HEK293, LX-2, and RAW 264.7 cells, pre- and mature 3T3-L1 adipocytes, and hPBMCs was analyzed by a sulforhodamine (SRB) assay to obtain their non-toxic concentration for further experiments and as screening data for their in vitro safety. The cells were plated for 12 h in 96-well plates and then treated with the oligopeptide and its conjugated sugar at a concentration of 0–1000 µg/mL for 48 h. Dimethyl sulfoxide (DMSO) was used as a vehicle control (the untreated control). At the indicated time, the cells were then fixed and subjected to an SRB assay. The absorbance was measured at 510 nm by spectrophotometry (Gen5, BioTek, Winooski, VT, USA), and the cell viability was calculated as the ratio of the treatment versus untreated control. The data are represented as the mean ± standard deviation of three replicates and are expressed relative to the untreated control. The percentage of cell survival was calculated as follows:% cell survival = (Abs_extract/Abs_control) × 100

[4] = test system: RAW 264.7 murine macrophage cell line; experiment: SRB cytotoxicity assay, RAW 264.7; settings: Mus musculus, RAW264.7, 48 h
Method: as §2, §3

[5] = SRB cytotoxicity assay, 3T3-L1 pre-adipocyte; format: cell-based, murine; settings: mouse, 3T3-L1 pre-adipocytes; 3T3-L1 Pre-adipocyte, 48 h, SRB
Description: as §1

3T3-L1 Pre-adipocyte = experiment: SRB cytotoxicity assay, 3T3-L1 pre-adipocyte; format: cell-based, murine; settings: 48 h
Description: as §1

RAW 264.7 cells = experiment: Cell viability (SRB) of RAW 264.7 in the presence of LPS; format: cell-based, murine; settings: up to 400 µg/mL, LPS 1 µg/mL, 24 h
IL-6 = IL-6 secretion by ELISA in LPS-treated RAW 264.7; format: cell-based, murine; settings: 100, 200, 400 µg/mL, LPS 1 µg/mL 24 h
Method: RAW 264.7 macrophage cells were pretreated with various concentrations of the oligopeptide and its conjugated forms (100, 200, 400 µg/mL) for an hour and then incubated with LPS (1 µg/mL) for further 24 h at 37 °C in a 5% CO2 humidified atmosphere. Then, a sandwich Enzyme Link Immuno-Sorbent Assay was carried out in accordance with the manufacturer’s protocols (BioLegend ELISA MAXTM Deluxe Set, San Diego, CA, USA) to measure TNF-α or IL-6 protein levels in the condition medium.

Drosophila melanogaster = experiment: Somatic mutation and recombination test (SMART, wing spot test); format: in vivo; parameters: key to Statistical diagnosis vs DI (negative control), Small Single (1–2 Cells) / Statistical diagnosis vs DI (negative control), Large Single (>2 Cells) / Statistical diagnosis vs DI (negative control), Twin / Statistical diagnosis vs DI (negative control), Total Spots: + = positive; − = negative; i = inconclusive; settings: for Frequency of Mutant Spots per Individual (Number of Spots), Large Single (>2 Cells) / Frequency of Mutant Spots per Individual (Number of Spots), Small Single (1–2 Cells) / Frequency of Mutant Spots per Individual (Number of Spots), Total Spots / Frequency of Mutant Spots per Individual (Number of Spots), Twin: 40 wings
Method: In brief, two strains of fruit flies, including mwh/mwh and ORR; flr^3/In(3LR) TM3, ri p^p sep l(3)89Aa bx^34e e Bd^S, were mated. […] After hatching, forty round wings were collected and analyzed for mutant spots (single, large, and twin spots). The statistical analysis for the wing spot test was performed as previously described. The Drosophila study was approved by the Institute of Nutrition—Mahidol University Institutional Animal Care and Use Committee (INMU-IACUC) (COA. No. INMU-IACUC 2023/01).

SMILES: OC[C@H]1OC(O)[C@@H](O)[C@@H](O)[C@@H]1O (stereo partly drawn) [Man, D-mannose]
- IC20 at 48 h [1]: > 1000 µg/mL
- toxicity to cells ([2]; HEK293, up to 1000 µg/mL, 48 h): not toxic
- IC50 ([2]; Homo sapiens, HEK293, 48 h, SRB, read-out: IC50): > 1000 µg/mL
- IC20 at 48 h [3]: > 1000 µg/mL
- IC50 [4]: > 1000 µg/mL
- IC20 at 48 h [5]: > 1000 µg/mL
- IC50 (3T3-L1 Pre-adipocyte; Mus musculus, 3T3-L1 Pre-adipocyte, SRB, read-out: IC50): > 1000 µg/mL
- toxicity to cells (3T3-L1 Pre-adipocyte; pre-3T3-L1, up to 1000 µg/mL): not toxic
- cell viability of RAW 264.7 cells in the presence of LPS (RAW 264.7 cells): did not change
- effect on level of IL-6 (IL-6): did not alter
- Statistical diagnosis vs DI (negative control), Large Single (>2 Cells) (Drosophila melanogaster; 62.5 µg/mL): i
- Statistical diagnosis vs DI (negative control), Small Single (1–2 Cells) (Drosophila melanogaster; 62.5 µg/mL): −
- Statistical diagnosis vs DI (negative control), Twin (Drosophila melanogaster; 62.5 µg/mL): −
- Frequency of Mutant Spots per Individual (Number of Spots), Large Single (>2 Cells) (Drosophila melanogaster; 62.5 µg/mL): 0.03 (1)
- Frequency of Mutant Spots per Individual (Number of Spots), Small Single (1–2 Cells) (Drosophila melanogaster; 62.5 µg/mL): 0.40 (16)
- Frequency of Mutant Spots per Individual (Number of Spots), Total Spots (Drosophila melanogaster; 62.5 µg/mL): 0.43 (17)
- Frequency of Mutant Spots per Individual (Number of Spots), Twin (Drosophila melanogaster; 62.5 µg/mL): 0.00 (0)
- Statistical diagnosis vs DI (negative control), Large Single (>2 Cells) (Drosophila melanogaster; 125 µg/mL): i
- Statistical diagnosis vs DI (negative control), Small Single (1–2 Cells) (Drosophila melanogaster; 125 µg/mL): −
- Statistical diagnosis vs DI (negative control), Total Spots (Drosophila melanogaster; 125 µg/mL): −
- Statistical diagnosis vs DI (negative control), Twin (Drosophila melanogaster; 125 µg/mL): −
- Frequency of Mutant Spots per Individual (Number of Spots), Large Single (>2 Cells) (Drosophila melanogaster; 125 µg/mL): 0.03 (1)
- Frequency of Mutant Spots per Individual (Number of Spots), Small Single (1–2 Cells) (Drosophila melanogaster; 125 µg/mL): 0.50 (20)
- Frequency of Mutant Spots per Individual (Number of Spots), Total Spots (Drosophila melanogaster; 125 µg/mL): 0.53 (21)
- Frequency of Mutant Spots per Individual (Number of Spots), Twin (Drosophila melanogaster; 125 µg/mL): 0.00 (0)
- Statistical diagnosis vs DI (negative control), Large Single (>2 Cells) (Drosophila melanogaster; 250 µg/mL): i
- Statistical diagnosis vs DI (negative control), Small Single (1–2 Cells) (Drosophila melanogaster; 250 µg/mL): −
- Statistical diagnosis vs DI (negative control), Total Spots (Drosophila melanogaster; 250 µg/mL): −
- Statistical diagnosis vs DI (negative control), Twin (Drosophila melanogaster; 250 µg/mL): −
- Frequency of Mutant Spots per Individual (Number of Spots), Large Single (>2 Cells) (Drosophila melanogaster; 250 µg/mL): 0.03 (1)
- Frequency of Mutant Spots per Individual (Number of Spots), Small Single (1–2 Cells) (Drosophila melanogaster; 250 µg/mL): 0.43 (17)
- Frequency of Mutant Spots per Individual (Number of Spots), Total Spots (Drosophila melanogaster; 250 µg/mL): 0.45 (18)
- Frequency of Mutant Spots per Individual (Number of Spots), Twin (Drosophila melanogaster; 250 µg/mL): 0.00 (0)
- Statistical diagnosis vs DI (negative control), Large Single (>2 Cells) (Drosophila melanogaster; 500 µg/mL): i
- Statistical diagnosis vs DI (negative control), Small Single (1–2 Cells) (Drosophila melanogaster; 500 µg/mL): −
- Statistical diagnosis vs DI (negative control), Total Spots (Drosophila melanogaster; 500 µg/mL): −
- Statistical diagnosis vs DI (negative control), Twin (Drosophila melanogaster; 500 µg/mL): −
- Frequency of Mutant Spots per Individual (Number of Spots), Large Single (>2 Cells) (Drosophila melanogaster; 500 µg/mL): 0.03 (1)
- Frequency of Mutant Spots per Individual (Number of Spots), Small Single (1–2 Cells) (Drosophila melanogaster; 500 µg/mL): 0.25 (10)
- Frequency of Mutant Spots per Individual (Number of Spots), Total Spots (Drosophila melanogaster; 500 µg/mL): 0.28 (11)
- Frequency of Mutant Spots per Individual (Number of Spots), Twin (Drosophila melanogaster; 500 µg/mL): 0.00 (0)
- Statistical diagnosis vs DI (negative control), Large Single (>2 Cells) (Drosophila melanogaster; 1000 µg/mL): i
- Statistical diagnosis vs DI (negative control), Small Single (1–2 Cells) (Drosophila melanogaster; 1000 µg/mL): −
- Statistical diagnosis vs DI (negative control), Total Spots (Drosophila melanogaster; 1000 µg/mL): −
- Statistical diagnosis vs DI (negative control), Twin (Drosophila melanogaster; 1000 µg/mL): −
- Frequency of Mutant Spots per Individual (Number of Spots), Large Single (>2 Cells) (Drosophila melanogaster; 1000 µg/mL): 0.03 (1)
- Frequency of Mutant Spots per Individual (Number of Spots), Small Single (1–2 Cells) (Drosophila melanogaster; 1000 µg/mL): 0.25 (10)
- Frequency of Mutant Spots per Individual (Number of Spots), Total Spots (Drosophila melanogaster; 1000 µg/mL): 0.28 (11)
- Frequency of Mutant Spots per Individual (Number of Spots), Twin (Drosophila melanogaster; 1000 µg/mL): 0.00 (0)
- Statistical diagnosis vs DI (negative control), Large Single (>2 Cells) (Drosophila melanogaster; 2000 µg/mL): −
- Statistical diagnosis vs DI (negative control), Small Single (1–2 Cells) (Drosophila melanogaster; 2000 µg/mL): −
- Statistical diagnosis vs DI (negative control), Total Spots (Drosophila melanogaster; 2000 µg/mL): −
- Statistical diagnosis vs DI (negative control), Twin (Drosophila melanogaster; 2000 µg/mL): −
- Frequency of Mutant Spots per Individual (Number of Spots), Large Single (>2 Cells) (Drosophila melanogaster; 2000 µg/mL): 0.00 (0)
- Frequency of Mutant Spots per Individual (Number of Spots), Small Single (1–2 Cells) (Drosophila melanogaster; 2000 µg/mL): 0.23 (9)
- Frequency of Mutant Spots per Individual (Number of Spots), Total Spots (Drosophila melanogaster; 2000 µg/mL): 0.23 (9)
- Frequency of Mutant Spots per Individual (Number of Spots), Twin (Drosophila melanogaster; 2000 µg/mL): 0.00 (0)
- Statistical diagnosis vs DI (negative control), Large Single (>2 Cells) (Drosophila melanogaster; 5000 µg/mL): −
- Statistical diagnosis vs DI (negative control), Small Single (1–2 Cells) (Drosophila melanogaster; 5000 µg/mL): −
- Statistical diagnosis vs DI (negative control), Total Spots (Drosophila melanogaster; 5000 µg/mL): −
- Statistical diagnosis vs DI (negative control), Twin (Drosophila melanogaster; 5000 µg/mL): −
- Frequency of Mutant Spots per Individual (Number of Spots), Large Single (>2 Cells) (Drosophila melanogaster; 5000 µg/mL): 0.00 (0)
- Frequency of Mutant Spots per Individual (Number of Spots), Small Single (1–2 Cells) (Drosophila melanogaster; 5000 µg/mL): 0.18 (7)
- Frequency of Mutant Spots per Individual (Number of Spots), Total Spots (Drosophila melanogaster; 5000 µg/mL): 0.18 (7)
- Frequency of Mutant Spots per Individual (Number of Spots), Twin (Drosophila melanogaster; 5000 µg/mL): 0.00 (0)
- DNA mutations / genome safety (Drosophila melanogaster; all doses, up to 5000 µg/mL): did not trigger DNA mutations

From article PMC11353420, “Anti-Inflammatory, Cytotoxic, and Genotoxic Effects of Soybean Oligopeptides Conjugated with Mannose” (Foods, 2024)
